Experimental data taken from US20240133870A1, “COMBINED TREATMENT FOR CANCER” (Yeda Research and Development Co. Ltd., priority 2021, published 2024).

What was measured:
[1] = tested on: pERK in G361 xenograft tumors; experiment: EVOC of xenograft tumors in various tissues, pERK immunohistochemistry; assay type: cell-based, human; conditions: co-treatment with vemurafenib 4 μM and AZD4547 2 μM
Procedure: (§1) SK-MEL-5 BRAF (V600E) melanoma cells were co-cultured with the lung-derived stromal cell line WI-38 or with the bone marrow-derived stromal cell line HS-5 with or without vemurafenib (4 μM). […] Vehicle—DMSO, EGFRi—gefitinib (0.1 μM), EGFRi/HER2i—lapatinib (10 nM), METi—crizotinib (0.1 μM), FGFRi—AZD4547 (50 nM), NFkB/TNFRi—CAPE (10 μM), TGFBRi-LY2109761 (0.5 μM), gp130i—SC144 (1 nM). P-values were calculated by two-sided t-test. *** P<0.001. Error bars represent standard error. […] P-values were calculated by two-sided t-test. *** P<0.001. Error bars represent standard error. […] Human BRAF (V600E) melanoma cell lines UACC62 or G361 were used to generate xenograft tumor models in various tissues of nude mice. When tumors reached a volume of 500-700 μmm^3, they were resected, sliced, and cultured ex-vivo in the presence of different drug combinations or DMSO control. Following 4 days of drug treatment, slices were fixed, embedded in paraffin blocks, and subjected to immunohistochemistry, using anti-pERK antibody, or to immuno-fluorescence, using anti-pFGFR1 antibody. BRAFi (vemurafenib, 4 μM), FGFRi (AZD4547, 2 μM). […]
(§2) For the ex-vivo experiments EVOCs from immunocompromised mice bearing human tumors were generated, as further described hereinbelow. For the in-vivo validation experiments, mice bearing subcutaneous tumors were used; and response was measured by evaluating tumor volume. […]

[2] = tested on: pERK in UACC62 xenograft tumors; experiment: as above; assay type: cell-based, human; conditions: skin tumors; AZD4547 2 μM added to vemurafenib 4 μM
Procedure: as §1, §2

## AZD4547
[1]
  pERK downregulation: sufficient to downregulate pERK in all of the different tumor locations
[2]
  pERK inhibition: near complete inhibition of pERK
